In patent US8623601B2, “Methods of diagnosing cancer” (Cognosci, Inc., priority 2011, dated 2014):
Like-named read-outs stand apart in the source and are kept apart here. *1 amine or outer side, *2 acyl side, *3 side chain or, on linkers, in order; H or OH if unused. Bridges are numbered along the chain shown (N, C = ends). Roman numbers before positions name the chains, in order. [ ]: non-standard residue; d: D form. BMOE = O=C1CC([*:1])C(=O)N1CCN1C(=O)CC([*:2])C1=O; Aib = CC(C)(N)C(=O)O

Key:
normal B-cells = assay: Cytotoxicity to normal B-cells from healthy volunteers, MTS assay; format: cell-based, human; settings: normal B-cells from healthy volunteers, 72 hours, read-out: Normal ED50
Text: (§1) CLL was diagnosed according to the NCl Working Group criteria (Hallek et al. 2008). Healthy volunteers and CLL patients from the Duke University and Durham Va. Medical Centers were enrolled in IRB-approved research protocols to collect clinical data and blood. Subjects gave signed informed consent prior to phlebotomy, in accordance with the Declaration of Helsinki. Blood was collected from participants into heparin-tubes, and CLL cells were purified as noted before (Weinberg et al. 2007). Briefly, CLL cells were isolated using the RosetteSep® B cell enrichment cocktail (catalog #15024/15064; Stem Cell Technologies, Vancouver, BC, Canada) according to the manufacturer's directions. This method yielded CLL cell purity of greater than 95% CD5+CD19+ B-cells as determined by flow cytometry. Normal B-lymphocytes were isolated using the EasySep® B-cell enrichment cocktail (catalog #15024/15064; Stem Cell Technologies, Vancouver, BC, Canada) according to the manufacturer's directions, with a purity of >94% CD 19+ lymphocytes.
(§2) For cytotoxicity assays, 3×10^6 CLL cells/well were cultured in 24 well tissue culture plates in 1.5 mL of Hybridoma SFM™ (Gibco, Long Island, N.Y.) as described by Levesque et al. (Levesque et al. 2001) (Levesque et al. 2003) All cultures were incubated at 37° C., 5% CO2 in air. […] (Levesque et al. 2003)
(§3) Based on the induction of apoptosis in CLL cells, we tested several analogs of COG449 for cytotoxicity against CLL cells freshly isolated from a number of patients and against normal B-cells from healthy volunteers (Table 4). Cells were cultured with the agents for 72 hours, and the viable cells were assessed for cytotoxicity using the MTS assay. […] We also analyzed the effect of shRNA-mediated knockdown of SET on the growth of B-cell lymphoma cell lines.

CLL cells = assay: CLL cell cytotoxicity, MTS assay; format: cell-based, human; settings: 72 hours
Experimental: as §2, §3

[1] = Cytotoxicity to normal B-cells from healthy volunteers, MTS assay; format: cell-based, human; settings: human
Text: as §1, §2, §3

Ramos cells = assay: Growth inhibition / cytotoxicity in Ramos NHL cells; format: cell-based, human
Experimental: FIG. 6: SET antagonism is cytotoxic to CLL cells and inhibits NHL cell growth in vitro. (A) Dose response curves for COG445 treatment of CLL cells from 7 patients or normal B-cells from 5 volunteers. (B) Dose response curves for COG449 treatment on CLL cells from 7 patients. (C) Raji NHL cells were transduced with SET shRNA or control lentivirus and knockdown was assessed by Western blotting from two samples of each.
FIG. 7: Cytotoxicity of COG449 can be modulated by a PP2A inhibitor in Ramos cells. Ramos cells were pretreated for 5 minutes with or without 1 nM OA before treatment with 1 μM COG449. After 24 hours, cytotoxicity was assessed using the […] assay reagent to detect viable cells.
as §3

SET (α and β isoforms) = settings: 10 μM biotin-labeled peptide, pull-down on beads, Western blot
Sequence of SET (α and β isoforms) (Q01105 38-290 limits assumed): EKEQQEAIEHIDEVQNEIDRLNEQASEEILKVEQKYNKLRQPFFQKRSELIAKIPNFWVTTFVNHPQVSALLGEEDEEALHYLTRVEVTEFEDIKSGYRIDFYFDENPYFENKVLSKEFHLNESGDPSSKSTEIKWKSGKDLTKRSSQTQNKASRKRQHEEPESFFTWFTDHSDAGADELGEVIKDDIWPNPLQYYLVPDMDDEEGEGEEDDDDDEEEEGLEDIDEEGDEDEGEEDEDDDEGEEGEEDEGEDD
Experimental: Complexes bound to Neutravidin-Agarose (NA) beads were then detected by Western blotting. Lane 1 contains 20 μg of cell lysate as a loading control. […] Lysates were incubated with biotin reagents for 1 hr before addition of NA beads and then incubated for an additional hour. After rigorous washing, the beads were boiled in SDS PAGE buffer, separated by PAGE and blotted to nitrocellulose.
CLL cells were lysed in NP40 buffer (50 mM Tris, 0.2% NP40, 150 mM NaCl) by a single freeze thaw cycle. Lysate protein concentration was adjusted to 5 mg/mL. Streptavidin agarose beads (1 mL) were washed with 10 mL of NP40 buffer, and 0.5 mL of beads was added to 1 mL of extract. ABeads were then collected by filtration through a disposable mini-column (Bio-Rad), and the flow-through extract was collected for analysis. Following washing with 100 mL of chilled NP40 buffer, the beads were removed from the column, collected by centrifugation, and 75 μL of 4× Laemmli buffer was added. Beads were vortexed and heated to 90° C. for 10 min to ensure that all proteins were released from the beads. Proteins were separated by SDS PAGE and Western blotting was used to determine if the COG133 and COG112 peptides bound to both isoforms of SET from a CLL patient sample.

[2] = CLL cells freshly isolated from patients, read-out: CLL ED50
[3] = CLL cells from 7 patients, read-out: ED50 of cytotoxicity to CLL cells

Substance	EC50 (normal B-cells) [µM]	EC50 (CLL cells; [2]) [µM]	also measured
AS(Aib)LRKL(Aib)KRLL (Ac-AS[Aib]LRKL[Aib]KRLL-NH2) [COG1410, Aib = aminoisobutyric acid]	> 20	5.7 ± 3	
I: Ac-RQIKIWFQNRRMKWKKCLRVRLASHLRKLRKRLL-NH2 / II: Ac-RQIKIWFQNRRMKWKKCLRVRLASHLRKLRKRLL-NH2 (disulfide I:17-II:17 (inferred)) [COG445]	> 10		EC50 at 72 h [1]: ≥ 10 µM; EC50 (CLL cells; [3]): 0.11 µM
I: Ac-RQIKIWFQNRRMKWKKCLRVRLASHLRKLRKRLL-NH2 / II: Ac-RQIKIWFQNRRMKWKKCLRVRLASHLRKLRKRLL-NH2 (linker I:17-II:17 via BMOE) [COG449]			EC50 (CLL cells; [3]): 0.103 µM; cytotoxicity in Ramos cells (Ramos cells; 1 μM COG449, 24 hours): robust cytotoxic effect; cytotoxicity in Ramos cells with PP2A inhibitor (Ramos cells; 1 μM COG449 after pretreatment with 1 nM OA, 24 hours): partially counteracted by treatment with OA
LLRKRLKRLHSALRVRL [COG056]	> 20	12.9 ± 4.6	
LRVRLASHLRKLRKRLL [COG133]	> 20	4.4 ± 1.5	binding to SET isoforms in CLL cell lysate (SET (α and β isoforms)): binds to both SET isoforms
RQIKIWFQNRRMKWKK-C-LRVRLASHLRKLRKRLL [COG112]	> 20	1.4 ± 0.7	binding to SET isoforms in CLL cell lysate (SET (α and β isoforms)): binds to both SET isoforms
oakadaic acid [reference compound]			cytotoxicity in Ramos cells (Ramos cells; 1 nM OA alone, 24 hours): not cytotoxic
